Values joined by “and” are separate entries in the source; they are usually repeats but may differ in a detail not shown here. Equal entries are not always repeated. Blank lines part the entries; values can stand above or below the compound they belong to.
Legend:
[1] = Relative lipophilicity from reverse-phase HPLC elution order; type: physicochemical; conditions: elutes first
Experimental: For the radiosynthesis step, high specific activity ^18F-fluoride (approximately 100 milliCurie) was produced in the MC-17 cyclotron. Fluorine-18 radioactivity count was measured in a Capintec dose calibrator, while low-level counts were measured out in a well-counter (Cobra Quantum, Packard Instruments Co). Direct radiolabeling of the tosylate precursor was done by using ^18F-fluoride in a solution of 19 mg of Kryptofix 2.2.2 and 0.75 mg potassium carbonate in acetonitrile. The mixture was heated at 85° C. for 20 minutes. After cooling, the mixture was transferred onto a neutral alumina Sep-Pak Cartridge to remove unreacted ^18F-fluoride. Chromatographic separations were preformed on semi-preparative reverse-phase C18 column (length=[…], ID=4.6 mm) using the Gilson high performance liquid chromatography (HPLC) systems. Decay-corrected radiochemical yield was approx. 20%. Retention time of ^18F-FBM was 14 mins compared to 15.7 mins for ^18F-FDDNP (for separation protocol, see e.g., Agdeppa E D et al. (2001) Binding Characteristics of Radiofluorinated 6-Dialkylamino-2-Naphthylethylidene Derivatives as Positron Emission Tomography Imaging Probes for Beta-Amyloid Plaques in Alzheimer's Disease. The Journal of Neuroscience 21, 1-5). ^18F-FBM was collected and prepared for in vitro binding studies. […]

[2] = system: senile plaques and neurofibrillary tangles; assay: In vitro autoradiographic binding to triple transgenic mouse sagittal brain slices; parameters: species or system triple transgenic mice; conditions: for selectivity of binding to the plaques: triple transgenic mice brain slices
Experimental: (§1) In vitro studies of ^18F-FBM were carried out on coronal and horizontal mice brain slices (both wild-type and Tg 2576), which were obtained on a Leica 1850 cryotome. Mice brain-region slices (hippocampus and frontal cortex of 24-month old wild-type and Tg 2576; 10 μm thick) were preincubated in buffer (0.9% saline) for 10 minutes. Subsequently, the mice brain slices were incubated with ^18F-FBM (6.8 μCi/cc) in 0.9% saline, pH 7.4 at 37° C. for 1 hr. For nonspecific binding, brain slices were treated with 10 μM FDDNP. Slices were washed with cold millipore water, 70% alcohol, 90%, alcohol, 70% alcohol, and water for 2, 1, 1, 1, and 1 min, respectively. The slices were air dried then exposed overnight onto a phosphor screen and read by the Phosphor Autoradiographic Imaging System/Cyclone Storage Phosphor System (Packard Instruments Co). Regions of interest were drawn on various regions of the slices and the extent of binding of ^18F-FBM was computed as DLU/mm^2 using the OptiQuant acquisition and analysis program (Packard Instruments Co).
(§2) Similar experiments were carried out in adjacent slices using ^18F-FDDNP (7.8 μCi/cc) for comparison. For evaluating the amount of plaque present in the brain slices, adjacent brain slices were also stained for the peptide fragment Aβ17-24 which is representative of the amount of Aβ40 and Aβ42 plaque aggregates using reported 4G8 immunostaining methods of UCI-Institute for Brain Aging and Dementia (Head E, Moffat K, Das P, Sarsoza E, Poon W W, Landsberg G, Cotman C W, Muphy M P. (2005). Beta-amyloid deposition and tau phosphorylation in clinically characterized aged cats. Neurobiology of Aging 26(5): 749-763). Beta-amyloid deposition and tau phosphorylation in clinically characterized aged cats. Neurobiology of Aging 26(5): 749-763).
Sagittal brain slices of 18 month old triple transgenic mice were then studied. These mice have been known to have an extensive amount of senile plaques and neurofibrillary tangles accumulation in several regions of the brain. These regions include the hippocampus, cortex, thalamus, brain stem and other regions. Binding of ^18F-FBM and ^18F-FDDNP to 10 micron thick slices of triple transgenic mice brains is depicted in FIG. 3 along with antibody staining for plaques. More specifically, FIG. 3A depicts antibody staining in the hippocampus and frontal cortex regions, which was also confirmed by thioflavin S staining in an adjacent slice (shown in inset in FIG. 3A). […] Regions of the hippocampus and the frontal cortex (arrows pointing) that contain the plaques are clearly evident.
The binding of ^18F-FBM in the various plaque containing regions was also quantitatively evaluated as a ratio plot shown in FIGS. 4A and 4B. Cerebellum and striatum were used as reference regions. […] The ratio between the frontal cortex regions showing plaques was between 6 and 7 while the hippocampus was between 3.5 and 4.5 as can be taken from FIG. 4A. […] On the other hand, in the case of ^18F-FDDNP, the binding ratios with respect to cerebellum were 1.5 and 2.0 as can be taken from FIG. 4B.

β-amyloid plaques [3] = target: T1, β-amyloid plaques (Homo sapiens, UniProt P05067); assay: In vitro autoradiographic binding to Tg2576 mouse hippocampal brain slices; parameters: representative of the amount of Aβ40 and Aβ42 plaque aggregates; from tissue; host or cells: hippocampal brain slices of 24-month old Tg2576 transgenic mice; species or system Tg2576 transgenic mice; conditions: for ratio of binding in plaque to non-plaque areas within the same slice: 10 μm hippocampal slice of 24-month old Tg2576 mouse
T1 sequence (P05067 672-713 limits assumed): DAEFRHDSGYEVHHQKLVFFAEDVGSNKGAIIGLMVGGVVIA
Experimental: as §1, §2
Hippocampal slice of 24-month old transgenic mouse (Tg2576, transgenic mice expressing mutant APP) stained for Aβ17-24 using 4G8 immunostaining confirmed presence of β-amyloid plaques found in Alzheimer's disease (FIGS. 1A and 2A depicting 10 μm thick horizontal hippocampal slice of 24-month old transgenic mouse (Tg2576) stained for Aβ17-24 using 4G8 immunostaining. Arrow indicates amyloid plaques.). Adjacent hippocampal slices radiolabeled with ^18F-FBM and ^18F-FDDNP indicated binding to amyloid plaques and corresponded to the 4G8 stain (FIGS. 1B and 2B depicting adjacent hippocampal slice shown in (A) but radiolabeled with high-specific activity ^18F-FBM or ^18F-FDDNP. Arrow indicates binding of ^18F-FBM or ^18F-FDDNP to the amyloid plaques and corresponds to the 4G8 stain.). The specific binding to amyloid plaques was reduced in the presence of 10 μM FDDNP (FIGS. 1C and 2C; FIG. 1C depicts adjacent hippocampal slice shown in (B) radiolabeled with high-specific activity ^18F-FBM in the presence of 10 μM FDDNP. Specific binding to regions containing plaques is reduced; and FIG. 2C depicts adjacent hippocampal slice in cold FDDNP. Specific binding to plaque regions is reduced). Alcohol was used for washing the medium to remove nonspecific binding. The ratio of binding in plaque to non-plaque areas within the same slice for ^18F-FBM was 2.1 while that for ^18F-FDDNP was 1.4; and in the presence of 10 μM FDDNP, these ratios went down to 1.6 and 1.2, respectively.

β-amyloid plaques [4] = target: T1, β-amyloid plaques; assay: In vitro autoradiographic binding of 18F-FPCUR to transgenic mice brain slices; parameters: from tissue; host or cells: sagittal brain sections of Tg 2576 and 3×Tg transgenic mice, 1 to 24 months; species or system transgenic mice (Tg 2576 and 3×Tg)
Experimental: Preliminary binding to rat brain slices of ^18F-fluoropropyl curcumin was carried out at 37° C. in Tris buffer, 50 mM, pH 7.4 for one hour, and further testing of ^18F-FPCUR for binding to β-amyloid plaques was carried out transgenic mice brains. […] Brain slices were pre-incubated for 10 mins in incubation buffer, 0.1 M Tris, 0.1 M NaCl, 0.5% Tween and 0.1% BSA, pH 7.4. Incubation was carried out in 0.1 M Tris, 0.1 M NaCl, 0.5% Tween and 0.1% BSA, pH 7.4 with ^18F-FPCUR (3 μCi/cc) at 37° C. for 1 hr. […] Slices were washed with cold buffer, 2×2 min, rinsed with cold water and air dried. Autoradiograms were obtained of various slices and binding of ^18F-FPCUR was quantitated using Optiquant Image analysis program. […] For evaluating the amount of plaque present in the brain slices, adjacent brain slices were also stained using reported immunostaining methods.

SMILES: CC(/C=C/c1ccc(N(C)CC[18F])cc1)=C(C#N)C#N [18F-FBM, 4′-[(2-[^18F]fluoroethyl)(methyl)amino]-4-phenyl-3-buten-2-malonitrile]
lipophilicity relative to 18F-FDDNP [1]: less lipophilic
selectivity of binding to the plaques [2]: selective binding
ratio of binding in plaque to non-plaque areas within the same slice (β-amyloid plaques [3]; in the presence of 10 μM FDDNP): 1.6
ratio of binding in plaque to non-plaque areas within the same slice (β-amyloid plaques [3]; no competitor): 2.1
specific binding to amyloid plaque regions compared to 18F-FDDNP (β-amyloid plaques [3]; Tg2576 hippocampal slices): higher specific binding

SMILES: CC(=C(C#N)C#N)c1ccc2cc(N(C)CC[18F])ccc2c1 [18F-FDDNP, 2-(1-{6-[(2-[^18F]fluoroethyl)(methyl)amino]-2-naphtyl}ethylidene)malonitrile]
binding ratios with respect to cerebellum ([2]; 18 month old triple transgenic mice, FIG. 4B): 1.5 and 2.0
selectivity of binding to the plaques [2]: less selective
binding in the cerebellum (no significant amount of plaques) ([2]; triple transgenic mice, FIG. 3D): significant amount of binding
ratio of binding in plaque to non-plaque areas within the same slice (β-amyloid plaques [3]; in the presence of 10 μM FDDNP): 1.2
ratio of binding in plaque to non-plaque areas within the same slice (β-amyloid plaques [3]; no competitor): 1.4

SMILES: COc1cc(/C=C/C(=O)CC(=O)/C=C/c2ccc(OCCC[18F])c(OC)c2)ccc1O [18F-FPCUR, ^18F-fluoropropylcurcumin]
binding in the cerebellum (CB) (β-amyloid plaques [4]; FIG. 7): little binding
binding in older transgenic mice (β-amyloid plaques [4]; older transgenic mice): Increased binding

displacement of 18F-FPCUR binding by competitor (β-amyloid plaques [4]; 10 μM competitor): displaced
SMILES: COc1cc(/C=C/C(=O)CC(=O)/C=C/c2ccc(O)c(OC)c2)ccc1O [Curcumin]

SMILES: CC(C=Cc1ccc(N(C)CCF)cc1)=C(C#N)C#N [FBM]
effect of competitor on binding of 18F-FDDNP in the hippocampus ([2]; FBM (1 mM), FIG. 3F): reduced

SMILES: CC(=C(C#N)C#N)c1ccc2cc(N(C)CCF)ccc2c1 [FDDNP]
effect of competitor on selective binding of 18F-FBM to plaque regions ([2]; 1 μM FDDNP, FIG. 3E): significantly reduced

— patent US7737183B2, “β-amyloid and neurofibrillary tangle imaging agents” (The Regents of the University of California, priority 2006, dated 2010)
